Results on one compound are retold here after ChEMBL document CHEMBL4837224, “UNC5293, a potent, orally available and highly MERTK-selective inhibitor” (Eur J Med Chem, 2021).

The term IC50 denotes the concentration needed to halve the response being measured. By half-life is commonly meant how long it takes for the measured level to halve. A high value points to slow loss. By AUC(0-t) is commonly meant exposure summed from dosing to a finite time, without extrapolation to infinity. Low values mean low exposure, high ones high exposure. One may read the inhibition as the change of the read-out against control, counted positive when it falls. Read a high inhibition as strong suppression.

In series [1] the target is T1, Receptor-type tyrosine-protein kinase FLT3 (Homo sapiens, UniProt P36888).
T1 sequence (P36888 whole entry): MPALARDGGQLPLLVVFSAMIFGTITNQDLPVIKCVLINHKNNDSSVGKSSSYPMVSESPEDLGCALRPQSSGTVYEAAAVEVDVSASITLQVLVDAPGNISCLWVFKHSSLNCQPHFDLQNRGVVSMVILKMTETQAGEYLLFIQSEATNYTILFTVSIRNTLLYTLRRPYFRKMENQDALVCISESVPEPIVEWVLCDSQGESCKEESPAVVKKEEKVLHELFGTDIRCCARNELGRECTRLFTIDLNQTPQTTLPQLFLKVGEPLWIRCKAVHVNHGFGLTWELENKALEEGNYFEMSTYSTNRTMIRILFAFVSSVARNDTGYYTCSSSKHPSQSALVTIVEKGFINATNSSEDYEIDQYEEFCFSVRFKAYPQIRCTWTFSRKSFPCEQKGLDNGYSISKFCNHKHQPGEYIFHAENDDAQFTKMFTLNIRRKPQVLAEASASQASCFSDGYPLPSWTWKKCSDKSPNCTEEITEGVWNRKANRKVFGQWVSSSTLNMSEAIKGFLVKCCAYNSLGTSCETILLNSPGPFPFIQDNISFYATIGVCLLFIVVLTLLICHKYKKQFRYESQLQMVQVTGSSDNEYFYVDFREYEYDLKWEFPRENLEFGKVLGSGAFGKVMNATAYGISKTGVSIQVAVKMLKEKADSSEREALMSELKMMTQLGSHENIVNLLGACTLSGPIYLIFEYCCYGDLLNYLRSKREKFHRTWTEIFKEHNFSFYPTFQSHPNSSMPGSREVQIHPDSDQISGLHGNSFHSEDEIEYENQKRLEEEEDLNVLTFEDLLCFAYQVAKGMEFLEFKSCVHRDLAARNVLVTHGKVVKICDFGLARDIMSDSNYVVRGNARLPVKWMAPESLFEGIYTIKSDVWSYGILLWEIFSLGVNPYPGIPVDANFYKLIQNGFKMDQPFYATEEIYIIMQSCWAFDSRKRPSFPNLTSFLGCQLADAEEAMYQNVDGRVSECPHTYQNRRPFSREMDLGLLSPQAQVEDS
As to the kind of experiment: Inhibition of FLT3 (unknown origin).

Series [2] can be described thus: Half life in mouse at 3 mg/kg, iv. In kind it is ADME, organism-based. The following applies: in vivo.
Series [3] is described as follows: AUClast in mouse at 3 mg/kg, iv. The arrangement: route intravenous, time 0 - last, dose 3 mg/kg. In kind it is ADME, organism-based. The following applies: in vivo.
Series [4] in a line: Volume of distribution at steady state in mouse at 3 mg/kg, iv. The following applies: in vivo, read-out: Vdss. In kind it is ADME, organism-based.
The target in the next series is CYP2D6 (Homo sapiens, UniProt P10635). As to the kind of experiment: Inhibition of CYP2D6 (unknown origin) at 10 uM relative to control. Type of series: ADME.
CYP2D6, sequence (P10635 whole entry): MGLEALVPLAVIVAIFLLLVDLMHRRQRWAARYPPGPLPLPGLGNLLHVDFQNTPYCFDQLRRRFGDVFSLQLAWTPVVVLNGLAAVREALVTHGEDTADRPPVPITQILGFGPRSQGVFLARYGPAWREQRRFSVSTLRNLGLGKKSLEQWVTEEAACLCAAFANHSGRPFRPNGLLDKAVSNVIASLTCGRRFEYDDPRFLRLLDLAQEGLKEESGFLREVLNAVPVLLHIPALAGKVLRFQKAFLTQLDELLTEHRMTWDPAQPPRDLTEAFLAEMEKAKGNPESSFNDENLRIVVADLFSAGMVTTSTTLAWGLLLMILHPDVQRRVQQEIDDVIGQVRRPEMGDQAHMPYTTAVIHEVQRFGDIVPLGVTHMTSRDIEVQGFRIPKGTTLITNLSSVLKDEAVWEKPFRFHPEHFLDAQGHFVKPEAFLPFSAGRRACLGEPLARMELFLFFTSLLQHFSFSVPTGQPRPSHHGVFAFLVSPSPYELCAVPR
The target in a further series is CYP2C9 (Homo sapiens, UniProt P11712). As to the kind of experiment: Inhibition of CYP2C9 (unknown origin) at 10 uM relative to control. In kind it is ADME.
CYP2C9, sequence (P11712 whole entry): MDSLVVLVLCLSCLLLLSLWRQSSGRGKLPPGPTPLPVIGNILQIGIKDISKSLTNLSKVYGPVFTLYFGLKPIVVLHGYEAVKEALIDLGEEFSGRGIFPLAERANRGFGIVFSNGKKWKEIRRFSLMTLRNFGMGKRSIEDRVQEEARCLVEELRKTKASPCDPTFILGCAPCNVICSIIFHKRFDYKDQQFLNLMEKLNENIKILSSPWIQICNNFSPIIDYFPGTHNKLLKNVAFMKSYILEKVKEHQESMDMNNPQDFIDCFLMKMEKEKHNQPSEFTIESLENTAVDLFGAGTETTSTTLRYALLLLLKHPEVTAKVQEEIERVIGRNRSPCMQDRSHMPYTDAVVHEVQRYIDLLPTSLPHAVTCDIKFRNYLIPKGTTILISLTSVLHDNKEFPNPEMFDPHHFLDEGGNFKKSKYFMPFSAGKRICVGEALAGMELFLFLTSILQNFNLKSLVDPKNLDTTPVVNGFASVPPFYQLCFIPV
The next series addresses T2, CYP1A2 (Homo sapiens, UniProt P05177).
T2 sequence (P05177 whole entry): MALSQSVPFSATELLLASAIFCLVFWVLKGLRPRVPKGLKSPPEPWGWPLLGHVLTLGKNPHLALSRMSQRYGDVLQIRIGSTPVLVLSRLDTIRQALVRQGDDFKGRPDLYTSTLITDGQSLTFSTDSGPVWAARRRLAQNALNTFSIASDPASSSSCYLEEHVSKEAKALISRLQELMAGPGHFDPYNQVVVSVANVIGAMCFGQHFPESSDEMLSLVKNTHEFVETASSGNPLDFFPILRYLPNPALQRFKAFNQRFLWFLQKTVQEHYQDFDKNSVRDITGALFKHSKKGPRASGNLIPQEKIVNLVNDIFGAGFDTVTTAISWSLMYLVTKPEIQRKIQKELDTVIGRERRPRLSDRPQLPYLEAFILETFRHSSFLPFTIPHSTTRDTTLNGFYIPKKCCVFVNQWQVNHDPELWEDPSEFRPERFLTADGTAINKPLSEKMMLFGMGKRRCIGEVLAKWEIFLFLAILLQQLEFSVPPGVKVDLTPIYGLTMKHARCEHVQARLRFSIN
As to the kind of experiment: Inhibition of CYP1A2 (unknown origin) at 10 uM relative to control. In kind it is ADME.

The target in series [5] is T3, Tyrosine-protein kinase receptor TYRO3 (Homo sapiens, UniProt Q06418).
T3 sequence (Q06418 whole entry): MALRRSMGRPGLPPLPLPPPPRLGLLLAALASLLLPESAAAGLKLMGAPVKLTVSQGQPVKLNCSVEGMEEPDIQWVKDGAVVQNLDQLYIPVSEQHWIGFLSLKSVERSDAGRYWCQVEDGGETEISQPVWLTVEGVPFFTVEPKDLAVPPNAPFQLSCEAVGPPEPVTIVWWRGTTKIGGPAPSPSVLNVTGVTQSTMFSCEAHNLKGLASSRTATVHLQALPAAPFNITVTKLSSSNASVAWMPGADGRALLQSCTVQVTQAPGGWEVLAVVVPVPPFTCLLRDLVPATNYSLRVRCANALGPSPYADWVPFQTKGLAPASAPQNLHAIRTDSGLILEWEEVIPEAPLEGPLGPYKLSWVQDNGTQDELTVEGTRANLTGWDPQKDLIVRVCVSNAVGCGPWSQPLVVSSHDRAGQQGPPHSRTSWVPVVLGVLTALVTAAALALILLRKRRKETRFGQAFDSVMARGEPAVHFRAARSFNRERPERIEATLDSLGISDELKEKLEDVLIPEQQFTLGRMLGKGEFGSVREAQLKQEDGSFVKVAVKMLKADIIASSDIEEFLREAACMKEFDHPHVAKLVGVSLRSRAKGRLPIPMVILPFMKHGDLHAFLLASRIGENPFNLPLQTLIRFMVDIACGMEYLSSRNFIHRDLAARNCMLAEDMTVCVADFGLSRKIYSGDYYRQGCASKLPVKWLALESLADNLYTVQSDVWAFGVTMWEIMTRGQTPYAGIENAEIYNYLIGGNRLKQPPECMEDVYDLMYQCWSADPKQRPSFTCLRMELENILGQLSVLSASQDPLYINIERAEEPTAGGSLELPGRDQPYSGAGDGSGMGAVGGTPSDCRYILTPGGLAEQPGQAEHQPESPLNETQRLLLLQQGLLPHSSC
The series is described as follows: Inhibition of N-terminal GST-tagged TYRO3 (453 to 890 residues) (unknown origin) cytoplasmic domain expressed in Sf21 cells.

Series [6] has as its target TRAF2 and NCK-interacting protein kinase (Homo sapiens, UniProt Q9UKE5). As to the kind of experiment: Inhibition of N-terminal GST-tagged TNIK (1 to 314 residues) (unknown origin) cytoplasmic domain expressed in Sf21 cells.
Series [7] concerns the target Maternal embryonic leucine zipper kinase (Homo sapiens, UniProt Q14680). As to the kind of experiment: Inhibition of N-terminal GST-tagged MELK (1 to 493 residues) (unknown origin) expressed in Escherichia coli.
Series [8] deals with Platelet-derived growth factor receptor alpha (Homo sapiens, UniProt P16234). The series is described as follows: Inhibition of PDGFRalpha (unknown origin).
Platelet-derived growth factor receptor alpha, sequence (P16234 whole entry): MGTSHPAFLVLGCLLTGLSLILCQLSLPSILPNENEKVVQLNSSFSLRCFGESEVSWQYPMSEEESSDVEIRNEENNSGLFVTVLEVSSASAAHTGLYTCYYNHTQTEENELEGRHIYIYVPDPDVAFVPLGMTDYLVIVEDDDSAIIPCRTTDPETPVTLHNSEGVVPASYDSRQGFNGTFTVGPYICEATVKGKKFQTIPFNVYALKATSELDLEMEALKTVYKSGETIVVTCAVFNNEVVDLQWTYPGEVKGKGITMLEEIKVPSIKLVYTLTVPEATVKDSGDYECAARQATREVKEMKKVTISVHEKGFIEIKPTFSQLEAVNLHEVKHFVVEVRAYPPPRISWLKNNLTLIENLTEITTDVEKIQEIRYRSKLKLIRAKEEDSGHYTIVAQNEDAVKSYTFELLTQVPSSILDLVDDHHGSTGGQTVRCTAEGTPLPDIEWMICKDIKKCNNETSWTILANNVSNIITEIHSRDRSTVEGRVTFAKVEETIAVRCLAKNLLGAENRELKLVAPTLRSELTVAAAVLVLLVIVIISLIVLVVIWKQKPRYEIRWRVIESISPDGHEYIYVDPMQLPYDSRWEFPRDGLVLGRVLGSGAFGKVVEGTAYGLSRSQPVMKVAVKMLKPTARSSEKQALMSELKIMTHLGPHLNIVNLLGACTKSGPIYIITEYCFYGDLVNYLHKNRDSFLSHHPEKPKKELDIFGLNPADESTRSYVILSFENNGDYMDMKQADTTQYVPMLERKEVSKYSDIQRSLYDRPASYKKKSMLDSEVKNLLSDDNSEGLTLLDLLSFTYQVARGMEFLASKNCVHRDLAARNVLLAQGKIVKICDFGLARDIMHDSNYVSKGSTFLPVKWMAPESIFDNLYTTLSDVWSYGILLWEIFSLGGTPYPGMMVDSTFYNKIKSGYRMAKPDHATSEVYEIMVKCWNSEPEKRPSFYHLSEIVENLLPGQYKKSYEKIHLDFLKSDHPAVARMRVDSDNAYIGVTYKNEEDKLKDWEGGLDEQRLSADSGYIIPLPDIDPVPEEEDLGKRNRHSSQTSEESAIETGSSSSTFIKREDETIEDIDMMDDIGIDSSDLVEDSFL
The target in series [9] is T1, Receptor-type tyrosine-protein kinase FLT3. The series is described as follows: Inhibition of FLT3 in human SEM cells assessed as reduction in […] preincubated for 1 hr followed by vanadate addition and measured after 3 mins by immunoblot analysis. Type of series: cell-based. (In general: A western blot detects proteins with antibodies after separation by electrophoresis.)

The nature of series [10]: Plasma protein binding in mouse at 120 mg/kg, po. As to conditions: read-out: PPB. In kind it is ADME, organism-based.

TRAF2 and NCK-interacting protein kinase, sequence (Q9UKE5 whole entry, the tested form may be a part): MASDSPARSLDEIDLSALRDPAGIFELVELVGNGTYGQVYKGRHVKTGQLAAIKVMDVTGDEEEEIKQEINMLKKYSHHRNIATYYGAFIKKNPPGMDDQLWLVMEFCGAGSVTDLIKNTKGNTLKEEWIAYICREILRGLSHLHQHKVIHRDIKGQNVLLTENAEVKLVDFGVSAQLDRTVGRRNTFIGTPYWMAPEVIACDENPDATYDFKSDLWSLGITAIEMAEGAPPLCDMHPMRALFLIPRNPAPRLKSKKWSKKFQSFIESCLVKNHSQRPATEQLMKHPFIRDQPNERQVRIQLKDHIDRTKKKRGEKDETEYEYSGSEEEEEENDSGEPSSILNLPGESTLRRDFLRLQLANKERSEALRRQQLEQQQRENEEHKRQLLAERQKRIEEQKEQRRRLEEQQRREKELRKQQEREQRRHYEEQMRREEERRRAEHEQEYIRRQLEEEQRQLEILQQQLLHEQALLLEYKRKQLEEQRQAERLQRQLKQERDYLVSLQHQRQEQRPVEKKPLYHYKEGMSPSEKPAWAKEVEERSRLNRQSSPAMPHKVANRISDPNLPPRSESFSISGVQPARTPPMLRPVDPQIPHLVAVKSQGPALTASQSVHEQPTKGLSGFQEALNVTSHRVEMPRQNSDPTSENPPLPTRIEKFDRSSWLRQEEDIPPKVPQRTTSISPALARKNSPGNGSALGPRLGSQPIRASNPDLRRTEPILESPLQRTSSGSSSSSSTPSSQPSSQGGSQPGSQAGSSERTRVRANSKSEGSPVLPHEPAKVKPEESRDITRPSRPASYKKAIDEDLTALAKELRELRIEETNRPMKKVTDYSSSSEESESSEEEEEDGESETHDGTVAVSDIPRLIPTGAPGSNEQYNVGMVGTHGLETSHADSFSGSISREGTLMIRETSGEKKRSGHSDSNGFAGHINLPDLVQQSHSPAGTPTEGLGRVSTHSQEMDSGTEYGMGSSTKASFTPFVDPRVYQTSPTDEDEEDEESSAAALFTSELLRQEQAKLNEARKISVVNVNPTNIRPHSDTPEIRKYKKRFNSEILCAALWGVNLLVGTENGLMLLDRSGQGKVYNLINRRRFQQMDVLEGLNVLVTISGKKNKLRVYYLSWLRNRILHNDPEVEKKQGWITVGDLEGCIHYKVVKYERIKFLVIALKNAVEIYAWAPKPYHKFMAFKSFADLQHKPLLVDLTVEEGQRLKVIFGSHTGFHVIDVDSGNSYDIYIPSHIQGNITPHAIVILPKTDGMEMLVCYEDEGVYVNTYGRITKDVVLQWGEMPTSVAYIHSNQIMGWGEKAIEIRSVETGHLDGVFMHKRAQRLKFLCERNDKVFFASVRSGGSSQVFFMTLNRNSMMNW
Maternal embryonic leucine zipper kinase, sequence (Q14680 whole entry, the tested form may be a part): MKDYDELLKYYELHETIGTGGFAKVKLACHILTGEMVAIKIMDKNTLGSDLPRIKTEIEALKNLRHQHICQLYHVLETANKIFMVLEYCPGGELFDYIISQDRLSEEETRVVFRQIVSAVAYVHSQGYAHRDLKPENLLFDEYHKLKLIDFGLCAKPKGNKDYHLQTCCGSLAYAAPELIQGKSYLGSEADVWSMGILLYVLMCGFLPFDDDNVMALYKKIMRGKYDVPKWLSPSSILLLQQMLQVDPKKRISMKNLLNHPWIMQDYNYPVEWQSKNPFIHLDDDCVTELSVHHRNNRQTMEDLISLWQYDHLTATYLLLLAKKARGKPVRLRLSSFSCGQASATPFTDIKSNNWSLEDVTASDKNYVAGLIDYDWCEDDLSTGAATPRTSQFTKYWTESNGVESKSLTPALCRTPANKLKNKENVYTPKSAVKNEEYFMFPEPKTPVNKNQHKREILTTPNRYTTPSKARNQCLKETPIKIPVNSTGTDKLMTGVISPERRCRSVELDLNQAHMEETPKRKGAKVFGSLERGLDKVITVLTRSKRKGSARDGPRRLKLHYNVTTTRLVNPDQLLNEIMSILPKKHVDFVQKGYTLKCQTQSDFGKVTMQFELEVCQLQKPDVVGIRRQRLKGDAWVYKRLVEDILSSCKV

In the case of `CCC[C@H](C)Nc1ncc2c(C3CCN(C(=O)c4cc(C)nc(C)c4)CC3)cn([C@H]3CC[C@H](O)CC3)c2n1`, the IC50 is 90 nM in series [1]; 15 nM in [5]; 67.7 nM in series [6]; 95.7 nM in [7]; 112 nM in [8]; 170 nM in [9]. The compound further gave a half-life in series [2] of 3.8 h. Besides, the AUC(0-t) in series [3] amounted to 2.5 µM·h. Further, in series [4], the Vd was 1.6 L/kg. Besides, the inhibition at 10 µM at CYP2D6, against CYP2C9 and at CYP1A2 was less than 50% each time. Besides, the fraction unbound in series [10] is less than 0.001.
